Measurements from patent US5760013A, “Thymidylate analogs and the use thereof” (National Science Council, priority 1996, dated 1998).
Values after ≈ are worked out from the molar mass of the structure shown. Read-outs that look alike come from different tables or passages of the source.

Tests used:
[1] = Determination of solubility in phosphate buffer (UV absorbance); type: physicochemical; conditions: for water solubility, in words: compared with AZT
Experimental: Determination of Solubility. Each compound (70 mg) listed in Table 1 was agitated in a 25-mL volumetric flask with phosphate buffer (0.10M, 5.0 mL) for 20 h.

HIV-1(III B) = experiment: Inhibition of cytopathogenicity of HIV-1(IIIB) in MT4 cells, cell-protection assay; type: cell-based, human immunodeficiency virus type 1 (HIV-1)
MT4 cell = experiment: Cellular toxicity in uninfected MT4 cells; type: cell-based; conditions: Homo sapiens
Experimental: Toxicity of these compounds was evaluated by their ability to cause morphological changes in cells at different concentrations.
^a Inhibitory concentrations (IC50) represent the average of
triplicate determinations;
^b Concentration of the compound required to reduce the number of
viable uninfected cells by 50%; and […]

[2] = phosphate buffer (0.10M), agitated 20 h
[3] = Human immunodeficiency virus 1, cytopathogenicity in MT4 cells, average of triplicate determinations, read-out: IC50 HIV-1(III B)
[4] = uninfected MT4 cells, average of triplicate determinations, read-out: IC50 MT4 cell (concentration required to reduce the number of viable uninfected cells by 50%)

Row | SMILES | water solubility, in words [1] | solubility in H2 O [1, 2] | IC50 (HIV-1(III B); [3]) | solubility at 20 h ([1]; 0.10 m phosphate buffer, aqueous buffer, phosphate buffer (0.10M), agitated 20 h, read-out: solubility in H2 O) | IC50 (MT4 cell; [4]) | IC50 (HIV-1(III B); Human immunodeficiency virus 1, MT4, read-out: IC50 HIV-1(III B)) | IC50 (MT4 cell; MT4, read-out: IC50 MT4 cell (concentration required to reduce the number of viable uninfected cells by 50%))
1 | Cc1cn([C@H]2C[C@H](F)[C@@H](CP(=O)(O)O)O2)c(=O)[nH]c1=O [Compound V, 3'-Fluoro-3',5'-dideoxythymidine-5'-phosphonic acid] | higher than that of AZT | 12260 µg/mL (≈ 39800 µM) | 11.8 µg/mL (≈ 38.3 µM) | – | 98.7 µg/mL (≈ 320 µM) | – | –
2 | Cc1cn([C@H]2C[C@H](OP(=O)(O)C[C@H]3O[C@@H](n4cc(C)c(=O)[nH]c4=O)C[C@@H]3F)[C@@H](CO)O2)c(=O)[nH]c1=O [Compound VII, (2R,4S,5R)-1-[4-Fluorotetrahydro-5-[(3'-O-thymidinyl-phosphinico)methyl]-2-furyl]thymine] | – | 3980 µg/mL (≈ 7480 µM) | 3.04 µg/mL (≈ 5.71 µM) | – | 79 µg/mL (≈ 148 µM) | – | –
3 | COC(=O)[C@@H](C)NP(=O)(C[C@H]1O[C@@H](n2cc(C)c(=O)[nH]c2=O)C[C@@H]1N=[N+]=[N-])O[C@H]1C[C@H](n2cc(C)c(=O)[nH]c2=O)O[C@@H]1CO (stereo partly drawn) [Compound XII, (2R,4S,5R)-1-[4-Azidotetrahydro-5-[[(3'-O-thymidinyl)(methoxy-D-alaninyl)-phosphinylidene]methyl]-2-furyl]thymine] | higher than that of AZT | 9200 µg/mL (≈ 14400 µM) | 0.76 µg/mL (≈ 1.19 µM) | – | 458 µg/mL (≈ 714 µM) | – | –
4 | Cc1cn([C@H]2C[C@H](C#N)[C@@H](CP(=O)(O)O)O2)c(=O)[nH]c1=O [IV, 3'-Cyano-3',5'-dideoxythymidine-5'-phosphonic acid] | – | – | > 128 µg/mL | – | 69.9 µg/mL (≈ 222 µM) | – | –
5 | COC(=O)[C@H](C)NP(=O)(C[C@H]1O[C@@H](n2cc(C)c(=O)[nH]c2=O)C[C@@H]1N=[N+]=[N-])O[C@H]1C[C@H](n2cc(C)c(=O)[nH]c2=O)O[C@@H]1CO (stereo partly drawn) [Compound X, (2R,4S,5R)-1-[4-Azidotetrahydro-5-[[(3'-O-thymidinyl)(methoxy-L-alaninyl)-phosphinylidene]methyl]-2-furyl]thymine] | – | 9130 µg/mL (≈ 14300 µM) | 0.61 µg/mL (≈ 0.952 µM) | – | 200 µg/mL (≈ 312 µM) | – | –
6 | COC(=O)[C@@H](C)NP(=O)(C[C@H]1O[C@@H](n2cc(C)c(=O)[nH]c2=O)C[C@@H]1F)O[C@H]1C[C@H](n2cc(C)c(=O)[nH]c2=O)O[C@@H]1CO (stereo partly drawn) [Compound XI, (2R,4S,5R)-1-[4-Fluorotetrahydro-5-[[(3'-O-thymidinyl)(methoxy-D-alaninyl)-phosphinylidene]methyl]-2-furyl]thymine] | – | 8920 µg/mL (≈ 14400 µM) | 0.5 µg/mL (≈ 0.81 µM) | – | 462 µg/mL (≈ 748 µM) | – | –
7 | Cc1cn([C@H]2C[C@H](N=[N+]=[N-])[C@@H](CO)O2)c(=O)[nH]c1=O [AZT, 3'-Azido-3'-deoxythymidine, reference compound] | – | – | – | – | – | 0.02 µg/mL (≈ 0.0748 µM) | 57.3 µg/mL (≈ 214 µM)

More lines, main results first:

Row | water solubility, in words [1] | solubility in H2 O [1, 2] | IC50 (HIV-1(III B); [3]) | solubility at 20 h ([1]; 0.10 m phosphate buffer, aqueous buffer, phosphate buffer (0.10M), agitated 20 h, read-out: solubility in H2 O) | SMILES | IC50 (MT4 cell; [4]) | IC50 (HIV-1(III B); Human immunodeficiency virus 1, MT4, read-out: IC50 HIV-1(III B)) | IC50 (MT4 cell; MT4, read-out: IC50 MT4 cell (concentration required to reduce the number of viable uninfected cells by 50%))
8 | – | – | 23.5 µg/mL (≈ 81 µM) | – | Cc1cn([C@H]2CC[C@@H](CP(=O)(O)O)O2)c(=O)[nH]c1=O [III, 3',5'-Dideoxythymidine-5'-phosphonic acid] | 128 µg/mL (≈ 443 µM) | – | –
9 | – | 8790 µg/mL (≈ 14200 µM) | 0.34 µg/mL (≈ 0.551 µM) | – | COC(=O)[C@H](C)NP(=O)(C[C@H]1O[C@@H](n2cc(C)c(=O)[nH]c2=O)C[C@@H]1F)O[C@H]1C[C@H](n2cc(C)c(=O)[nH]c2=O)O[C@@H]1CO (stereo partly drawn) [Compound IX, (2R,4S,5R)-1-[4-Fluorotetrahydro-5-[[(3'-O-thymidinyl)(methoxy-L-alaninyl)-phosphinylidene]methyl]-2-furyl]thymine] | 180 µg/mL (≈ 292 µM) | – | –
10 | – | – | 7.68 µg/mL (≈ 23.2 µM) | 11100 µg/mL (≈ 33600 µM) | Cc1cn([C@H]2C[C@H](N=[N+]=[N-])[C@@H](CP(=O)(O)O)O2)c(=O)[nH]c1=O [Compound VI, 3'-Azido-3',5'-dideoxythymidine-5'-phosphonic Acid] | 115 µg/mL (≈ 346 µM) | – | –
11 | – | 3240 µg/mL (≈ 5830 µM) | 1.92 µg/mL (≈ 3.46 µM) | – | Cc1cn([C@H]2C[C@H](N=[N+]=[N-])[C@@H](CP(=O)(O)O[C@H]3C[C@H](n4cc(C)c(=O)[nH]c4=O)O[C@@H]3CO)O2)c(=O)[nH]c1=O [VIII, (2R,4S,5R)-1-[4-Azidotetrahydro-5-[(3'-O-thymidinyl-phosphinico)methyl]-2-furyl]thymine] | 99.5 µg/mL (≈ 179 µM) | – | –
